Measurements: patent US20120003191A1, “VALPROIC ACID, DERIVATIVES, ANALOGUES, AND COMPOSITIONS INCLUDING SAME AND METHODS FOR THEIR THERAPEUTIC USE” (priority 2009, published 2012)

Legend:
Assay type in all cases: in vivo, mouse
[1] = tested on: CD8 positive cytotoxic T-cells; test: Quantification of CD8 positive cells in muscle; details: 240 mg/kg i.p. twice daily for 5 weeks, quadriceps
Experimental: 240 mg/kg body weight of VPA was injected intraperitoneally twice daily into mdx/utrn^−/− mice (n=9) starting at 3 weeks of age, for a period of 5 weeks. Control mice were injected with saline (n=9). Body-weights were determined daily. 8 μm thick cryosections of the quadriceps muscles of saline and VPA injected mice were made. Cytotoxic T-cells were detected with a FITC-labeled rat anti-mouse CD8a antibody (BD Pharmingen, San Diego, Calif.) as follows: the sections were fixed in 4% paraformaldehyde for 5 minutes, washed in PBS three times for 5 minutes each, blocked with 5% BSA/PBS for 1 hour, anti-CD8 antibody added at 1:1000 dilution for 1 hour and washed in 1% BSA/PBS three times for 5 minutes each. The sections were mounted in Vectashield containing DAPI (Vector Laboratories). The number of CD8 positive cells and the total number of nuclei in the same field were counted in ten random fields for each mouse. The ratio of the number of CD positive cells to the total number of nuclei were calculated, averaged and plotted for the saline and VPA treated groups.

mdx/utrn−/− mice [2] = test: Masson's trichrome staining of quadriceps cryosections; details: 240 mg/kg i.p. twice daily for 5 weeks
Experimental: (§1) mdx/utrn−/− mice lack both dystrophin and utrophin, and were bred and genotyped as reported in Burkin, et al., Enhanced expression of the alpha 7 beta 1 integrin reduces muscular dystrophy and restores viability in dystrophic mice, J. Cell Biol. 152:1207-18 (2001). 240 mg/kg body weight of VPA was injected intraperitoneally twice daily into mdx/utrn^−/− mice (n=9) starting at 3 weeks of age, for a period of 5 weeks. Control mice were injected with saline (n=9). Body-weights were determined daily. Masson's trichrome staining kit (American MasterTech Scientific Inc., Lodi, Calif.) was used to stain 8 μm muscle cryosections, as per the manufacturer's instructions.

α7 integrin = test: Western blotting of α7 integrin in muscle extracts of mdx/utrn−/− mice; details: 240 mg/kg i.p. twice daily for 5 weeks
Experimental: as §1, with “daily.” for “daily. Masson's trichrome staining kit (American MasterTech Scientific Inc., Lodi, Calif.) was used to stain 8 μm muscle cryosections, as per the manufacturer's instructions.”
Cell lysates of differentiating cells on 60 mm dishes were prepared as follows: the cells were washed twice with PBS and 200 μl Triton X-100 lysis buffer (2% Triton X-100, 20 mM Tris-Cl, pH 7.4, 150 mM NaCl, 1 mM EDTA, 1 mM EGTA, 2.5 mM NaPPi, 1 mM β-glycerophosphate, 1 mM sodium vanadate, 1:200 Protease Inhibitor Cocktail (EMD Chemicals, San Diego, Calif.) and 1 mM PMSF) were added. The cells were scraped and transferred into Eppendorf tubes, the cell suspensions were triturated and centrifuged at 8000×g at 4° C. for 10 minutes, and the supernatants were collected. […] Protein concentrations were determined by the Bradford assay. […] The supernatants were collected and protein concentrations were determined spectrophotometrically at OD260 and OD280. […] ImageQuant analysis software (Molecular Dynamics, Sunnyvale, Calif.) was used to quantify band intensity.

mdx/utrn−/− mice [3] = test: Quantification of Evan's blue dye uptake in quadriceps; details: 240 mg/kg i.p. twice daily for 5 weeks
Experimental: mdx/utrn−/− mice lack both dystrophin and utrophin, and were bred and genotyped as reported in Burkin, et al., Enhanced expression of the alpha 7 beta 1 integrin reduces muscular dystrophy and restores viability in dystrophic mice, J. Cell Biol. 152:1207-18 (2001). 240 mg/kg body weight of VPA was injected intraperitoneally twice daily into mdx/utrn^−/− mice (n=9) starting at 3 weeks of age, for a period of 5 weeks. Control mice were injected with saline (n=9). Body-weights were determined daily. On the 35th day of injection of VPA, mice were injected intraperitoneally with 100 mg/kg body weight of Evan's blue dye. After 24 hours, the quadriceps muscles were collected, frozen in liquid nitrogen-cooled isopentane and stored at −80° C. 8 μm cryosections of quadriceps were fixed in ice-cold methanol for 1 minute and washed in PBS three times for 5 minutes each. To delineate muscle fibers, the sections were incubated for 10 minutes at room temperature in FITC-conjugated wheat-germ agglutinin (WGA) (Invitrogen) diluted 1:500 in PBS. The sections were washed three times in PBS, 5 minutes each time, and the percentage of Evan's blue dye positive fibers in three sections taken 40 μm apart were counted (approximately 5000 fibers total) for each mouse.

CCCC(CCC)C(=O)O [VPA, valproic acid]
decrease of CD8 positive cytotoxic T-cell content [1]: approximately 2.1 fold
collagen staining in quadriceps compared to controls (mdx/utrn−/− mice [2]): lower intensity of collagen staining
α7 integrin in muscle extracts, saline versus VPA injected mice (α7 integrin): did not show changes
fewer damaged (Evans blue positive) fibers than saline (mdx/utrn−/− mice [3]): approximately 2 fold
